The test system of test [1] is PGE2 production in IL-1β-stimulated A549 cells. Briefly: Inhibition of PGE2 production in IL-1β-stimulated A549 cells. The settings on record: A549, IL-1β 10 ng/mL, 5 and 10 μM, 24 h, ELISA. It counts as cell-based, human. Here is the method:
Figure 3 (A) A549 cells in conditioned medium (1% FBS and 10 ng/mL IL-1β) were incubated for 24 h with 5 and 10 μM of compound 3, 6, 7, and 9. PGE2 released into the medium was quantified using a specific ELISA. Control cells were stimulated with IL-1β, treated with vehicle (DMSO), and expressed as mean ± SEM (pg/mL), n = 2. (B) A549 cell line was used to perform a MTT assay. A549 were treated with 3, 6, 7, and 9 (test compounds, 10 μM), staurosporine (1 μM, positive control), or vehicle (0.1% DMSO) for 48 h. (C) Human monocytes were used to perform a MTT assay. Cells were treated with 3, 6, 7, and 9 (test compounds, 10 μM), Triton X-100 (1%, positive control), or vehicle (0.5% DMSO) for 24 h. Data are expressed as a percentage of control (100%), means, SEM, n = 3.
Carslbad, CA, USA), in 5% CO2 humid atmosphere. The cells were subcultured every 2 days and were tested for Mycoplasma using PCR analysis.Inhibition of PGE2 production in cells A549 cells were plated at 10.000 cells/well in DMEM with 10% FBS-medium in a 96-well plate; after overnight incubation, the cells were treated with 5 and 10 µM of 3, 6, 7, 9 compounds in DMEM 1%FBS and IL-1β (10 ng/ml) to upregulate PG synthase expression.
After 24 h, the amount of PGE2 released in the supernatant was evaluated by a commercially available enzyme immunoassay kit (Prostaglandin E2 EIA kit Monoclonal, Cayman Chemical), and at the same time was evaluated cell viability by MTT using (3-4,5-[…])-2,5-diphenyl tetrazolium bromide reagent (Sigma-Aldrich). Following the treatment, 20 µL of MTT (5 mg/mL in PBS) was added, and the cells were incubated for additional 3 h at 37°C. […]
The absorbance was measured at 570 nm with a Multiskan™ GO Microplate Spectrophotometer (Thermo Fisher Scientific, USA). […]
MTT (5 mg/mL) was added, and after 1 h (37 °C, 5% CO 2) the medium was replaced with DMSO (100 µL per well). Finally, formazan formation was detected by the measurement of absorbance at […]
Acute cytotoxicity of compounds 3, 6, 7, 9 was analyzed on human monocytes. […]
Background: In an ELISA, binding on a coated surface is turned into a signal by an enzyme label.

Test [2] concerns 5-LO product formation in intact neutrophils (PMNL). Briefly: Determination of 5-LO products in neutrophils. In kind it is cell-based. The settings on record: Homo sapiens. Here is the method:
Figure S3. Concentration-response curves for inhibition of 5-LO product formation in neutrophils.
Cells were pre-incubated with compounds 3, 6, 7 and 9 or 0.1% DMSO over 10 min at 37 °C, and then stimuli were added. On the left (A,C, E, G), cells were stimulated with 2.5 µM Ca 2+-ionophore A23187 over 10 min; on the right (B, D, F, H), cells were stimulated with 2.5 µM Ca 2+-ionophore A23187 plus 20 µM arachidonic acid over 10 min. Data are expressed as percentage of uninhibited control (100%), means, S.E.M., n = 3. […]
Determination of 5-LO products in neutrophils
Freshly isolated neutrophils were resuspended in PBS buffer containing 0.1% glucose and 1 mM CaCl2 to a final cell density of 5 × 10 6. Cells were pre-incubated with compounds 3, 6, 7, 9 or DMSO vehicle (0.1%) at 37 °C for 10 min. Then, 2.5 µM Ca 2+-ionophore A23187 (with or without supplementation of 20 µM of arachidonic acid) was added as stimulus, and cells were left at 37 °C for 10 min. 1 mL of ice-cold methanol was used to stop the reaction of 5-LO product formation on ice, and 530 µL of PBS plus HCl and PGB 1 (as internal standard) were added. Finally, cells were centrifuged (2000 x g) over 10 min at room temperature, and 5-LO products were extracted by solid-phase extraction, and they were quantified by RP-HPLC as described above. […]

[3] abbreviates: 2.5 µM A23187, n = 3, read-out: 5-LO product formation on PMNL, IC50 value ± SEM, stimulus: A23187.
[4] abbreviates: 2.5 µM A23187 plus 20 μM arachidonic acid, n = 3, read-out: 5-LO product formation on PMNL, IC50 value ± SEM, stimulus: A23187 + AA.

Each structure is given as a SMILES string. Like-named read-outs stand apart in the source and are kept apart here.

By IC50 is commonly meant the midpoint of a concentration-inhibition curve.

Regarding `Cc1cc(C(=O)Nc2nnc(-c3ccc(-c4ccccc4N)cc3)s2)cc(Cl)n1` [compound 6], the “PGE2 released into the medium” value in test [1] is “able to suppress the biosynthesis of PGE2 in a concentration-dependent manner”. The IC50 in test [2] (setting [3]) came to 4.8 ± 1.9 µM; in test [2] (setting [4]), 6.9 ± 2.2 µM.

Consider `O=C(Nc1nnc(-c2ccc(-c3cccc(O)c3)cc2)s1)c1ccccc1Br` [compound 3], for which the IC50 in test [2] (setting [3]) was 4.9 ± 0.5 µM; in test [2] (setting [4]), 5.2 ± 1.2 µM.

As to `Nc1ccccc1-c1ccc(-c2nnc(NC(=O)c3c(Cl)ccnc3Cl)s2)cc1` [compound 9], the “PGE2 released into the medium” value in test [1] was “able to suppress the biosynthesis of PGE2 in a concentration-dependent manner”. Also, the 50% inhibitory concentration (IC50) in test [2] (setting [3]) came out at 2.1 ± 0.3 µM; in test [2] (setting [4]), 4.2 ± 0.3 µM.

For `Nc1ccccc1-c1ccc(-c2nnc(NC(=O)c3ccccc3Br)s2)cc1` [compound 7], the “PGE2 released into the medium” value in test [1] is on record as “able to suppress the biosynthesis of PGE2 in a concentration-dependent manner”. The IC50 turned out to be 4.2 ± 1.4 µM in test [2] (setting [3]) and 2.3 ± 0.8 µM in test [2] (setting [4]).

The record behind these values is article PMC9841589, “Identification of 2-Aminoacyl-1,3,4-thiadiazoles as Prostaglandin E2 and Leukotriene Biosynthesis Inhibitors” (ACS Medicinal Chemistry Letters, 2022).
